Experimental data from patent US9718828B2 (MERCK SHARP & DOHME CORP., priority 2011, dated 2017).
Counter-ions that a name gives are not always drawn.

The molecules below were run against Btk enzyme (His-Btk) (Homo sapiens (Human), UniProt Q06187) (assay: Btk enzyme activity, IMAP fluorescence polarization assay (Assay Method A)). Conditions: not given.
Btk enzyme (His-Btk), sequence (Q06187 whole entry): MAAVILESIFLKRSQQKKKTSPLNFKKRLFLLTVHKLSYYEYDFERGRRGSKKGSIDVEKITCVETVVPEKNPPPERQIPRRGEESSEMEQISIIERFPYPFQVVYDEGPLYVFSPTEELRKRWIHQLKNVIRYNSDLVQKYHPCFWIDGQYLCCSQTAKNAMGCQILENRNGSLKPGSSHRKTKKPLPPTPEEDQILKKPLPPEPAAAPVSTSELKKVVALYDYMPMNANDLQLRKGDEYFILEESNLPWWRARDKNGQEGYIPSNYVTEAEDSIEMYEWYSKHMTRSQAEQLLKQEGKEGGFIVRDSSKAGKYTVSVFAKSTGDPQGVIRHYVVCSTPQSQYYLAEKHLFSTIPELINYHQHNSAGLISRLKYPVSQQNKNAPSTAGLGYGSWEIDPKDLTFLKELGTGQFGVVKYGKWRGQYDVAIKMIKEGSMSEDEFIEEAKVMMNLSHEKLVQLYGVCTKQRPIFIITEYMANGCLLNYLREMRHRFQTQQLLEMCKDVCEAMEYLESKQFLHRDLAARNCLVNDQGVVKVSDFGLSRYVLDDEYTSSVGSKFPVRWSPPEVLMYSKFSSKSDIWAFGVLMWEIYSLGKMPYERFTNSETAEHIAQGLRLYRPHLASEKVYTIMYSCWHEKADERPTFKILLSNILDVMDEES

Row | SMILES | EC50 [nM]
1 | CCc1cnc(NC(=O)c2ccc(-c3nc(C4CCOCC4)n4ccnc(N)c34)cc2)s1 [Example 28, 4-(8-amino-3-(tetrahydro-2H-pyran-4-yl)imidazo[1,5-a]pyrazin-1-yl)-N-(5-ethylthiazol-2-yl)benzamide] | 10 to 100
2 | CC1CCc2nc(NC(=O)c3ccc(-c4nc([C@H]5[C@@H]6COC[C@@H]65)n5ccnc(N)c45)cc3)sc2C1 (stereo partly drawn) [Example 32, 4-(8-amino-3-((1R,5S,6S)-3-oxabicyclo[3.1.0]hexan-6-yl)imidazo[1,5-a]pyrazin-1-yl)-N-(6-methyl-4,5,6,7-tetrahydrobenzo[d]thiazol-2-yl)benzamide, TFA salt] | 10 to 100
3 | NCCOCCOCCOCCOCCC(=O)N1CCC[C@@H](c2nc(-c3ccc(C(=O)Nc4cc(C(F)(F)F)ccn4)cc3)c3c(N)nccn23)C1 [Example 85, (R)-4-(8-amino-3-(1-(1-amino-3,6,9,12-tetraoxapentadecane)piperidin-3-yl)imidazo[1,5-a]pyrazin-1-yl)-N-(4-(trifluoromethyl)pyridin-2-yl)benzamide] | < 10
4 | Nc1nccn2c([C@@H]3CCCN(CC4CCCC4)C3)nc(-c3ccc(C(=O)Nc4cc(C5CC5)ccn4)cc3)c12 [Example 143, (R)-4-(8-amino-3-(1-(cyclopentylmethyl)piperidin-3-yl)imidazo[1,5-a]pyrazin-1-yl)-N-(4-cyclopropylpyridin-2-yl)benzamide, TFA salt] | 10 to 100
5 | Nc1nccn2c1c(-c1ccc(C(=O)Nc3ccccn3)c3ccccc13)nc2[C@H]1CC[C@H](O)CC1 [Example 22, 4-(8-amino-3-((trans)-4-hydroxycyclohexyl)imidazo[1,5-a]pyrazin-1-yl)-N-(pyridin-2-yl)-1-naphthamide] | 100 to 1000
6 | CCc1cnc(NC(=O)c2ccc(-c3nc([C@H]4CC[C@H](OC(C)=O)CC4)n4ccnc(N)c34)cc2)s1 [Example 38, (trans)-4-(8-amino-1-(4-(5-ethylthiazol-2-ylcarbamoyl)phenyl)imidazo [1,5-a]pyrazin-3-yl)cyclohexyl acetate] | 10 to 100
7 | CCC(=O)N1CCC[C@@H](c2nc(-c3ccc(C(=O)Nc4ccccn4)cc3)c3c(N)nccn23)C1 [Example 46, (R)-4-(8-amino-3-(1-propionylpiperidin-3-yl)imidazo[1,5-a]pyrazin-1-yl)-N-(pyridin-2-yl)benzamide] | < 10
8 | NCCCCC(=O)N1CCC[C@@H](c2nc(-c3ccc(C(=O)Nc4ccccn4)cc3)c3c(N)nccn23)C1 [Example 54, (R)-4-(8-amino-3-(1-(5-aminopentanoyl)piperidin-3-yl)imidazo[1,5-a]pyrazin-1-yl)-N-(pyridin-2-yl)benzamide] | 10 to 100
9 | CC(C)C(=O)N1CCC(c2nc(-c3ccc(C(=O)Nc4ccccn4)cc3)c3c(N)nccn23)CC1 [Example 129, 4-(8-amino-3-(1-isobutyrylpiperidin-4-yl)imidazo[1,5-a]pyrazin-1-yl)-N-(pyridin-2-yl)benzamide] | 100 to 1000

Same assay, conditions: read-out: EC50 Btk activity values - Assay Method A

Row | SMILES | EC50 [nM]
10 | Nc1nccn2c([C@@H]3CCCN(C(=O)OCc4ccccc4)C3)nc(-c3ccc(C(=O)Nc4cc(C(F)(F)F)ccn4)cc3)c12 [Example 107, (R)-benzyl 3-(8-amino-1-(4-(4-(trifluoromethyl)pyridin-2-ylcarbamoyl)phenyl)imidazo[1,5-a]pyrazin-3-yl)piperidine-1-carboxylate] | < 10

Same assay, conditions: read-out: EC50 Btk activity values - Assay Method A; IMAP-FP, 60 min pre-incubation, 5 μM ATP

Row | SMILES | EC50 [nM]
11 | COCCC(=O)N1CCC[C@@H](c2nc(-c3ccc(C(=O)Nc4ccccn4)cc3C(F)(F)F)c3c(N)nccn23)C1 [Example 283, 4-(8-amino-3-((R)-1-(3-methoxypropanoyl)piperidin-3-yl)imidazo[1,5-a]pyrazin-1-yl)-N-(pyridin-2-yl)-3-(trifluoromethyl)benzamide, TFA salt] | ≥ 1000

Same assay, conditions: read-out: EC50 Btk activity values - Assay Method A; IMAP-FP, 60 min pre-incubation, 5 μM ATP; class 100-1000 is given as ≧100 nM-<1 μM

Row | SMILES | EC50 [nM]
12 | Nc1nccn2c1c(-c1ccc(C(=O)Nc3cc(C(F)(F)F)ccn3)cc1)nc2[C@H]1CC[C@H](O)CC1 [Example 2, 4-(8-amino-3-((trans)-4-hydroxycyclohexyl)imidazo[1,5-a]pyrazin-1-yl)-N-(4-(trifluoromethyl)pyridin-2-yl)benzamide] | < 10
13 | CC(C)c1ccnc(NC(=O)c2ccc(-c3nc([C@H]4CC[C@H](O)CC4)n4ccnc(N)c34)cc2)c1 [Example 6, 4-(8-amino-3-((trans)-4-hydroxycyclohexyl)imidazo[1,5-a]pyrazin-1-yl)-N-(4-isopropylpyridin-2-yl)benzamide] | < 10
14 | Nc1nccn2c(N3CCCC(C(=O)N[C@@H]4CCOC4)C3)nc(-c3ccc(C(=O)Nc4cc(C(F)(F)F)ccn4)cc3)c12 (stereo partly drawn) [Example 238, 1-(8-amino-1-(4-(4-(trifluoromethyl)pyridin-2-ylcarbamoyl)phenyl)imidazo[1,5-a]pyrazin-3-yl)-N-((R)-tetrahydrofuran-3-yl)piperidine-3-carboxamide, TFA salt] | < 10
15 | Nc1nccn2c(N3CCCC(C(=O)NC[C@@H]4CCCO4)C3)nc(-c3ccc(C(=O)Nc4ccccn4)cc3)c12 (stereo partly drawn) [Example 227, 1-(8-amino-1-(4-(pyridin-2-ylcarbamoyl)phenyl)imidazo[1,5-a]pyrazin-3-yl)-N-(((S)-tetrahydrofuran-2-yl)methyl)piperidine-3-carboxamide, TFA salt] | < 10
16 | Nc1nccn2c(C3CN(C(=O)C4CC4)CCO3)nc(-c3ccc(C(=O)Nc4cc(C(F)(F)F)ccn4)cc3)c12 (stereo not drawn) [Example 176, 4-(8-amino-3-(4-(cyclopropanecarbonyl)morpholin-2-yl)imidazo[1,5-a]pyrazin-1-yl)-N-(4-(trifluoromethyl)pyridin-2-yl)benzamide] | < 10
17 | C[C@H]1CC[C@@H](c2nc(-c3ccc(C(=O)Nc4cc(C5CC5)ccn4)cc3)c3c(N)nccn23)CN1C(=O)C1CCC1 (relative stereo) [Example 197, 4-(8-amino-3-((cis)-1-(cyclobutanecarbonyl)-6-methylpiperidin-3-yl)imidazo[1,5-a]pyrazin-1-yl)-N-(4-cyclopropylpyridin-2-yl)benzamide, TFA salt] | < 10
18 | Nc1nccn2c([C@@H]3CCCNC3)nc(-c3ccc(C(=O)Nc4cc(C(F)(F)F)ccn4)cc3)c12 [Example 106, (R)-4-(8-amino-3-(piperidin-3-yl)imidazo[1,5-a]pyrazin-1-yl)-N-(4-(trifluoromethyl)pyridin-2-yl)benzamide] | < 10
19 | CCOC(=O)N1CCC[C@@H](c2nc(-c3ccc(C(=O)Nc4cc(C(F)(F)F)ccn4)cc3)c3c(N)ncnn23)C1 [Example 255, (R)-ethyl 3-(4-amino-5-(4-(4-(trifluoromethyl)pyridin-2-ylcarbamoyl)phenyl)imidazo[1,5-f][1,2,4]triazin-7-yl)piperidine-1-carboxylate] | < 10
20 | C[C@H]1CC[C@@H](c2nc(-c3ccc(C(=O)Nc4ccccn4)cc3)c3c(N)nccn23)CN1C(=O)C1CCC1 (relative stereo) [Example 204, 4-(8-amino-3-((cis)-1-(cyclobutanecarbonyl)-6-methylpiperidin-3-yl)imidazo[1,5-a]pyrazin-1-yl)-N-(pyridin-2-yl)benzamide, TFA salt] | < 10
21 | C[C@H]1CC[C@@H](c2nc(-c3ccc(C(=O)Nc4cc(C5CC5)ccn4)cc3)c3c(N)nccn23)CN1C(=O)N1CCCCC1 (relative stereo) [Example 184, 4-(8-amino-3-((cis)-6-methyl-1-(piperidine-1-carbonyl)piperidin-3-yl)imidazo[1,5-a]pyrazin-1-yl)-N-(4-cyclopropylpyridin-2-yl)benzamide, TFA salt] | < 10
